Results: article PMC9962302, “The Mechanism of Metal-Containing Formate Dehydrogenases Revisited: The Formation of Bicarbonate as Product Intermediate Provides Evidence for an Oxygen Atom Transfer Mechanism” (Molecules, 2023)

Assays:
[1] = target: T1, R. capsulatus FDH (RcFDH), metal-containing formate dehydrogenase (Rhodobacter capsulatus, UniProt D5AQH0); assay: steady-state inhibition kinetics of formate oxidation, benzyl viologen as electron acceptor, […] nm; format: biochemical
T1 construct: gene fdhA
T1 sequence (D5AQH1 1-500 partner, one chain of several): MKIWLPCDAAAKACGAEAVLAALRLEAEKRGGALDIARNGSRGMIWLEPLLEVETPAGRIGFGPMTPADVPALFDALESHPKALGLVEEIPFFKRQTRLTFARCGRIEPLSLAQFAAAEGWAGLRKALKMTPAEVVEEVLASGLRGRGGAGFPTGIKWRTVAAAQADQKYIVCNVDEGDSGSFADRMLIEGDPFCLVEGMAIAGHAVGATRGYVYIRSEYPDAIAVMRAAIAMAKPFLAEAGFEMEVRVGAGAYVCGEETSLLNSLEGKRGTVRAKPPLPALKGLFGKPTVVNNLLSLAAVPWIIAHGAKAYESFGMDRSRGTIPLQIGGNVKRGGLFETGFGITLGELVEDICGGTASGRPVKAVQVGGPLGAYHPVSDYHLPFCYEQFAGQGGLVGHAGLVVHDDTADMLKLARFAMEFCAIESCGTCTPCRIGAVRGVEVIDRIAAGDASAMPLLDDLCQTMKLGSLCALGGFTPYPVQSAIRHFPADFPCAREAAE
T1 sequence (D5AQH2 1-150 partner, one chain of several): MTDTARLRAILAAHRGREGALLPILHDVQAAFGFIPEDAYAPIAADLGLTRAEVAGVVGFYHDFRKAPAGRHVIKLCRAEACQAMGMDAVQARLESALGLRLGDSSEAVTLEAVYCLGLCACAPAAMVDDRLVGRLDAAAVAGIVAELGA
T1 sequence (D5AQG8 1-71 partner, one chain of several): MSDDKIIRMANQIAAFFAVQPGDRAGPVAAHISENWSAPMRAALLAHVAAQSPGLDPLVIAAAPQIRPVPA

[2] = target: T1, R. capsulatus FDH (RcFDH), metal-containing formate dehydrogenase; assay: inhibition of the back reaction (CO2 reduction) at […] CS2, […] nm; format: biochemical
purified protein [3] = substrate: O=CO; assay: purified protein; format: biochemical, Rhodobacter capsulatus; details: bis-MGD molybdenum cofactor, [4Fe-4S] cluster; NAD+ active site, molybdenum centre
purified protein [4] = substrate: O=CS; assay: purified protein; format: biochemical, Rhodobacter capsulatus; details: bis-MGD molybdenum cofactor, [4Fe-4S] cluster; NAD+

S=CS [dithioformate] was tested, and the Ki [1] was 7.5 mM.

With S=C=S [carbon disulfide] the “inhibition of the back reaction (CO2 reduction) at 150 mM CS2, 340 nm” value [2] was “interfere with the active site and/or the hydrophobic channel and, therefore, inhibits the reduction in CO2 when present”.

B1: R. capsulatus FDH (RcFDH), metal-containing formate dehydrogenase (Rhodobacter capsulatus SB 1003) (protein)
chain: MKDLIIPPLDWTQDMGTPKREGAPVHLTIDGVEVTVPAGTSVLRAAAEAGISIPKLCATDNVEPVGSCRLCMVEIEGMRGTPTSCTTPVAPGMRVHTQTPQLQKLRRGVMELYISDHPLDCLTCAANGDCELQDMAGAVGLREVRYQAKDTHFARRDATGPNPRYIPKDNSNPYFSYDPAKCIVCMRCVRACEEVQGTFALTVMGRGFDARISPAAPDFLSSDCVSCGACVQACPTATLVEKSVERIGTPERKVVTTCAYCGVGCSFEAHMLGDQLVRMVPWKGGAANRGHSCVKGRFAYGYATHQDRILKPMIRDKITDPWREVNWTEALDFTATRLRALRDSHGADALGVITSSRCTNEETYLVQKLARAVFGTNNTDTCARVCHSPTGYGLKQTFGTSAGTQDFDSVEETDLALVIGANPTDGHPVFASRLRKRLRAGAKLIVVDPRRIDLLNTPHRGEAWHLQLKPGTNVAVMTAMAHVIVTEQIFDKRFIGDRCDWDEWADYAEFVANPEYAPEAVESLTGVPAGLLRQAARAYAAAPNAAIYYGLGVTEHSQGSTTVIAIANLAMMTGNIGRPGVGVNPLRGQNNVQGSCDMGSFPHEFPGYRHVSDDATRGLFERTWGVTLSSEPGLRIPNMLDAAVEGRFKALYVQGEDILQSDPDTRHVSAGLAAMDLVIVHDLFLNETANYAHVFLPGSTFLEKDGTFTNAERRINRVRRVMAPKAGFADWEVTQMLANALGAGWHYTHPSEIMAEIAATTPGFAAVTYEMLDARGSVQWPCNEKAPEGSPIMHVEGFVRGKGRFIRTAYLPTDEKTGPRFPLLLTTGRILSQYNVGAQTRRTENTVWHGEDRLEIHPTDAETRGIRDGDWVRLASRAGETTLRATVTDRVSPGVVYTTFHHPDTQANVVTTDTSDWATNCPEYKVTAVQVAASNGPSDWQQDYAAQAAAARRIEAAE
For B1, the Km (purified protein [3]) was 145 ± 25 µM and the Km (purified protein [4]) was 3300 ± 240 µM.
